According to patent publication US5519022A, “α, α dialkylbenzyl derivatives” (Imperial Chemical Industries Plc, priority 1991, dated 1996):

What follows are compounds tested against T1, 5-LO (Homo sapiens, UniProt P09917) (assay: Test a) in vitro inhibition of LTB4 production in A23187-challenged heparinised human blood (radioimmunoassay)). Settings: calcium ionophore A23187 challenge.
T1 construct: effects of a test compound against 5-LO and also cyclooxygenase in the presence of blood cells and proteins; endogenous in cells; host or cells: blood cells in heparinised human blood challenged with calcium ionophore A23187
T1 sequence (P09917 1-674): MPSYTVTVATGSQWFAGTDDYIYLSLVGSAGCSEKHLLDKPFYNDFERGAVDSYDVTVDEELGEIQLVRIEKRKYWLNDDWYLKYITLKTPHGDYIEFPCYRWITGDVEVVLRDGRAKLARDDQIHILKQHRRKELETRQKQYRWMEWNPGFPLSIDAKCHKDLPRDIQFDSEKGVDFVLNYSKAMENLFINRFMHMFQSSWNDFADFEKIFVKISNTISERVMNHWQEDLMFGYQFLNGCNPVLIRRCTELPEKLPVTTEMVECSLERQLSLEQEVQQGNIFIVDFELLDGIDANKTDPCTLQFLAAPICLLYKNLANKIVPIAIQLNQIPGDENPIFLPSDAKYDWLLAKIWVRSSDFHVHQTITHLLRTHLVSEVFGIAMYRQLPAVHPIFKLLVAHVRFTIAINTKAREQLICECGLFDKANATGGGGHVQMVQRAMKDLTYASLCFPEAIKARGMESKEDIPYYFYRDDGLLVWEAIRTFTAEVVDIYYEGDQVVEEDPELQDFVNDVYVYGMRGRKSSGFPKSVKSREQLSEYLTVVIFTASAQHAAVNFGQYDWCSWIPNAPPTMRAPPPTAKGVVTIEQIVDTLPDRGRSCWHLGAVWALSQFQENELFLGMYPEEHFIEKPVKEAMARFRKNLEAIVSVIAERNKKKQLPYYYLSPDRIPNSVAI
Type: cell-based
Experimental: a) An in vitro assay system involving incubating a test compound with heparinised human blood, prior to challenge with the calcium ionophore A23187 and then indirectly measuring the inhibitory effects on 5-LO by assaying the amount of LTB4 using specific radioimmunoassays described by Carey and Forder (F. Carey and R. A. Forder, Prostaglandins, Leukotrienes Med., 1986, 22, 57; Prostaglandins, 198, 28, 666; Brit. J. Pharmacol. 1985, 84, 34P) which involve the use of a protein-LTB4 conjugate produced using the procedure of Young et alia (Prostaglandins, 1983, 26(4), 605-613). The effects of a test compound on the enzyme cyclooxygenase (which is involved in the alternative metabolic pathway for arachidonic acid and gives rise to prostaglandins, thromboxanes and related metabolites) may be measured at the same time using the specific radioimmunoassay for thromboxane B2 (TxB2) described by Carey and Forder (see above). This test provides an indication of the effects of a test compound against 5-LO and also cyclooxygenase in the presence of blood cells and proteins. It permits the selectivity of the inhibitory effect on 5-LO or cyclooxygenase to be assessed.

Row | SMILES | IC50
1 | CCC(C)(C#N)c1cccc(OCc2ccc3c(ccc(=O)n3C)c2)c1 (stereo not shown) [2-methyl-2-[3-(1-methyl-2-oxo-1,2-dihydroquinolin-6-ylmethoxy)phenyl]butyronitrile] | 80 nM
2 | CCC(C#N)(CC)c1cccc(OCc2ccc3c(ccc(=O)n3C)c2)c1 [2-ethyl-2-[3-(1-methyl-2-oxo-1,2-dihydroquinolin-6-ylmethoxy)phenyl]butyronitrile] | 500 nM
3 | C=CCC(C#N)(CC=C)c1cccc(OCc2ccc3c(ccc(=O)n3C)c2)c1 [2,2-diallyl-2-[3-(1-methyl-2-oxo-1,2-dihydroquinolin-6-ylmethoxy)phenyl]acetonitrile] | 50 nM
4 | CCC(CC)(C(C)=O)c1cccc(OCc2ccc3c(ccc(=O)n3C)c2)c1 [3-ethyl-3-[3-(1-methyl-2-oxo-1,2-dihydroquinolin-6-ylmethoxy)phenyl]pentan-2-one] | 150 nM
